PubChem BioAssay (NCI)
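These data come from cells grown in 96-well plates and exposed to compound for 48 hours at five concentrations. TGI: total growth inhibition.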

Assays:
Test in all cases: NCI tumour cell line growth inhibition, 48 h
786-0 renal = tested on: 786-0 renal
A498 renal = tested on: A498 renal
A549 NSCLC = tested on: A549 NSCLC
ACHN renal = tested on: ACHN renal
BT-549 breast = tested on: BT-549 breast
CAKI-1 renal = tested on: CAKI-1 renal
CCRF-CEM leukemia = tested on: CCRF-CEM leukemia
COLO 205 colon = tested on: COLO 205 colon
DU-145 prostate = tested on: DU-145 prostate
EKVX NSCLC = tested on: EKVX NSCLC
HCC-2998 colon = tested on: HCC-2998 colon
HCT-116 colon = tested on: HCT-116 colon
HCT-15 colon = tested on: HCT-15 colon
HL-60(TB) leukemia = tested on: HL-60(TB) leukemia
HOP-62 NSCLC = tested on: HOP-62 NSCLC
HOP-92 NSCLC = tested on: HOP-92 NSCLC
HS 578T breast = tested on: HS 578T breast
HT29 colon = tested on: HT29 colon
IGROV1 ovarian = tested on: IGROV1 ovarian
K-562 leukemia = tested on: K-562 leukemia
KM12 colon = tested on: KM12 colon
LOX IMVI melanoma = tested on: LOX IMVI melanoma
M14 melanoma = tested on: M14 melanoma
MCF7 breast = tested on: MCF7 breast
MDA-MB-231 breast = tested on: MDA-MB-231 breast
MDA-MB-435 = tested on: MDA-MB-435
MDA-N = tested on: MDA-N
MOLT-4 leukemia = tested on: MOLT-4 leukemia
NCI-H226 lung = tested on: NCI-H226 lung
NCI-H23 lung = tested on: NCI-H23 lung
NCI-H460 lung = tested on: NCI-H460 lung
NCI/ADR-RES ovarian = tested on: NCI/ADR-RES ovarian
OVCAR-3 ovarian = tested on: OVCAR-3 ovarian
OVCAR-4 ovarian = tested on: OVCAR-4 ovarian
OVCAR-5 ovarian = tested on: OVCAR-5 ovarian
OVCAR-8 ovarian = tested on: OVCAR-8 ovarian
PC-3 prostate = tested on: PC-3 prostate
RPMI-8226 leukemia = tested on: RPMI-8226 leukemia
RXF 393 renal = tested on: RXF 393 renal
SF-268 CNS = tested on: SF-268 CNS
SF-295 CNS = tested on: SF-295 CNS
SF-539 CNS = tested on: SF-539 CNS
SK-MEL-2 melanoma = tested on: SK-MEL-2 melanoma
SK-MEL-28 melanoma = tested on: SK-MEL-28 melanoma
SK-MEL-5 melanoma = tested on: SK-MEL-5 melanoma
SK-OV-3 ovarian = tested on: SK-OV-3 ovarian
SN12C renal = tested on: SN12C renal
SNB-19 CNS = tested on: SNB-19 CNS
SNB-75 CNS = tested on: SNB-75 CNS
SR leukemia = tested on: SR leukemia
SW-620 colon = tested on: SW-620 colon
T-47D breast = tested on: T-47D breast
TK-10 renal = tested on: TK-10 renal
U251 CNS = tested on: U251 CNS
UACC-257 melanoma = tested on: UACC-257 melanoma
UACC-62 melanoma = tested on: UACC-62 melanoma
UO-31 renal = tested on: UO-31 renal

For `CCOc1ccccc1N=Cc1c2ccccc2cc2ccccc12`, the TGI (786-0 renal) was 41.1 µM, the TGI (A498 renal) was over 72.4 µM and the TGI (A549 NSCLC) was 80.9 µM. It also gave a TGI (ACHN renal) of over 93.3 µM, a TGI (BT-549 breast) of 70.1 µM and a TGI (CAKI-1 renal) of over 92.4 µM. For the same compound, the TGI (CCRF-CEM leukemia) was over 58.1 µM, the TGI (COLO 205 colon) was over 88.7 µM and the TGI (DU-145 prostate) was 58.4 µM. The TGI (EKVX NSCLC) was 52.3 µM, the TGI (HCC-2998 colon) was 44.3 µM and the TGI (HCT-116 colon) was 41.5 µM. For the same compound, the TGI (HCT-15 colon) was over 83.5 µM, the TGI (HL-60(TB) leukemia) was 53 µM and the TGI (HOP-62 NSCLC) was over 84.3 µM. It also gave a TGI (HOP-92 NSCLC) of 53.4 µM, a TGI (HS 578T breast) of over 53.9 µM and a TGI (HT29 colon) of 54.2 µM. The TGI (IGROV1 ovarian) was 49.9 µM, the TGI (K-562 leukemia) was over 67.7 µM and the TGI (KM12 colon) was 49.3 µM. It also gave a TGI (LOX IMVI melanoma) of 38.2 µM, a TGI (M14 melanoma) of 41.1 µM and a TGI (MCF7 breast) of over 79.8 µM. The TGI (MDA-MB-231 breast) was 67.4 µM, the TGI (MDA-MB-435) was 56 µM and the TGI (MDA-N) was 53.3 µM. It also gave a TGI (MOLT-4 leukemia) of 53.3 µM, a TGI (NCI-H226 lung) of over 100 µM and a TGI (NCI-H23 lung) of 45.9 µM. For the same compound, the TGI (NCI-H460 lung) was over 100 µM, the TGI (NCI/ADR-RES ovarian) was over 66.1 µM and the TGI (OVCAR-3 ovarian) was over 67.6 µM. It also gave a TGI (OVCAR-4 ovarian) of over 74 µM, a TGI (OVCAR-5 ovarian) of 68.9 µM and a TGI (OVCAR-8 ovarian) of 70 µM. It also gave a TGI (PC-3 prostate) of over 68.8 µM, a TGI (RPMI-8226 leukemia) of 56.5 µM and a TGI (RXF 393 renal) of 37.4 µM. The TGI (SF-268 CNS) was 54.5 µM, the TGI (SF-295 CNS) was over 100 µM and the TGI (SF-539 CNS) was over 71.4 µM. For the same compound, the TGI (SK-MEL-2 melanoma) was 53.4 µM, the TGI (SK-MEL-28 melanoma) was over 73.5 µM and the TGI (SK-MEL-5 melanoma) was over 83.8 µM. For the same compound, the TGI (SK-OV-3 ovarian) was 68.6 µM, the TGI (SN12C renal) was 61.5 µM and the TGI (SNB-19 CNS) was over 88.4 µM. For the same compound, the TGI (SNB-75 CNS) was 47.7 µM, the TGI (SR leukemia) was 61.7 µM and the TGI (SW-620 colon) was over 100 µM. For the same compound, the TGI (T-47D breast) was 64.1 µM, the TGI (TK-10 renal) was 67.2 µM and the TGI (U251 CNS) was over 63.9 µM. For the same compound, the TGI (UACC-257 melanoma) was over 74.4 µM, the TGI (UACC-62 melanoma) was over 100 µM and the TGI (UO-31 renal) was 43.6 µM.
